This is an account of results in US7115750B1, “Melanin concentrating hormone antagonist” (Takeda Pharmaceutical Company Limited, priority 1999, dated 2006).

The structures appear in SMILES notation. Counter-ions that a name gives are not always drawn.

`COc1ccc(CC(=O)Nc2ccc(CC(=O)NCCN(C)C)cc2)cc1OC` [Example 187, 2-(3,4-dimethoxyphenyl)-N-[4-[2-[[2-(dimethylamino)ethyl]amino]-2-oxoethyl]phenyl]acetamide] gave a melting point of 123 to 124 °C.
To `CN(C)CC1=Cc2ccc(NC(=O)c3ccc(-c4ccccc4)cc3)cc2C1` (hydrate or solvate) [Example 244, N-[2-[(Dimethylamino)methyl]-1H-inden-6-yl][1,1′-biphenyl]-4-carboxamide] belongs 187 to 189 °C.
Under `O=C(Nc1ccc2c(c1)CCC(CN1CCCCC1)C2)c1ccc(-c2ccc(F)cc2)cc1` (centres unmarked) [Example 54, 4′-Fluoro-N-[6-(1-piperidinylmethyl)-5,6,7,8-tetrahydro-2-naphthalenyl][1,1′-biphenyl]-4-carboxamide] stands 179 to 181 °C.
Under `CSc1ccc(-c2ccc(C(=O)Nc3ccc4c(c3)CCC(CN(C)C)C4)cc2)cc1` (centres unmarked) [Example 36, N-[6-[(N,N-Dimethylamino)methyl]-5,6,7,8-tetrahydro-2-naphthalenyl]-4′-(methylsulfanyl)[1,1′-biphenyl]-4-carboxamide] stands 178 to 180 °C.
`CN(C)CC1CCc2cc(NC(=O)c3ccc4c(c3)S(=O)(=O)c3ccccc3C4=O)ccc2C1` (centres unmarked) [Example 7, N-[2-(N,N-Dimethylamino)methyl-6-tetralinyl]-9,10,10-trioxo-9,10-dihydro-101^6-thioxanthene-3-carboxamide]: the melting point was 222 to 223 °C (dec.).
Compound `O=C(Nc1ccc2c(c1)CCC(CN1CCCC1)=C2)c1ccc(-c2ccccc2)nc1` [Example 153, 6-Phenyl-N-[6-(1-pyrrolidinylmethyl)-7,8-dihydro-2-naphthalenyl]nicotinamide] showed a melting point of 186 to 187 °C.
Under `CN(C)CCNC(=O)Cc1ccc(NC(=O)c2ccc3c(c2)S(=O)(=O)c2ccccc2C3=O)cc1` [Example 194, N-[4-[2-[[2-(Dimethylamino)ethyl]amino]-2-oxoethyl]phenyl]-9,10,10-trioxo-9,10-dihydro-10λ^6-thioxanten-3-carboxamide] stands 162 to 163 °C (dec.); under `CN(C)CC1COc2ccc(NC(=O)c3ccc(-c4ccccc4)cc3)cc2O1` (centres unmarked) [Example 104, N-[3-[(Dimethylamino)methyl]-2,3-dihydro-1,4-benzodioxin-6-yl][1,1′-biphenyl]-4-carboxamide], 124 to 126 °C; under `N#CC1=C(CN2CCCC2)CCc2cc(NC(=O)c3ccc(-c4ccc(Cl)cc4)cc3)ccc21` [Example 117, 4′-Chloro-N-[5-cyano-6-(1-pyrrolidinylmethyl)-7,8-dihydro-2-naphthalenyl][1,1′-biphenyl]-4-carboxamide], 191 to 192 °C.
Under `O=C(Nc1ccc2c(c1)CCC(CN1CCCC1)=C2)c1ccc(-c2ccc(F)cc2F)nc1` [Example 87, 6-(2,4-Difluorophenyl)-N-[6-[(1-pyrrolidinyl)methyl]-7,8-dihydro-2-naphthalenyl]nicotinamide] stands 169 to 170 °C; under `CN(C)CCNC(=O)Cc1ccc(NC(=O)c2ccc(C(=O)c3ccccc3)cc2)cc1` [Example 196, 4-Benzoyl-N-[4-[2-[[2-(dimethylamino)ethyl]amino]-2-oxoethyl)phenyl]benzamide], 173 to 175 °C (dec.).
Under `CN(C)CC1CCc2cc(NC(=O)c3ccc(-c4ccc(Cl)cc4)cc3)ccc2C1` (centres unmarked) [Example 12, (4′-Chlorobiphenyl-4-yl)-N-[2-(N,N-dimethylamino)methyl-6-tetralinyl]carboxamide] stands 187 to 189 °C; under `COc1ccc(C2CCN(C(=O)Nc3ccc4c(c3)CCC(CN3CCN(C)CC3)=C4)CC2)cc1` [Example 242, 4-(4-Methoxyphenyl)-N-[6-[(4-methyl-1-piperazinyl)methyl]-7,8-dihydro-2-naphthalenyl]-1-piperidinecarboxamide], 198 to 200 °C.
For the compound `Cc1ccc(C2CCN(C(=O)Nc3ccc4c(c3)CCC(CN(C)C)=C4)CC2)cc1` [Example 167, N-[6-[(Dimethylamino)methyl]-7,8-dihydro-2-naphthalenyl]-4-(4-methylphenyl)-1-piperidinecarboxamide], the melting point lay in the range of 200 to 202 °C.
Regarding `Cc1cc(Br)ccc1C(=O)Nc1ccc2c(c1)CCC(CN(C)C)C2` (centres unmarked) [Example 24, 4-Bromo-N-[6-[(N,N-dimethylamino)methyl]-5,6,7,8-tetrahydro-2-naphthalenyl]-2-methylbenzamide], the melting point was 140 to 142 °C.
To `CCOC(=O)c1ccc(-c2ccc(C(=O)Nc3ccc4c(c3)CCC(CN(C)C)C4)cc2)cc1` (centres unmarked) [Example 35, Ethyl 4′-[[[6-[(N,N-dimethylamino)methyl]-5,6,7,8-tetrahydro-2-naphthalenyl]amino]carbonyl][1,1′-biphenyl]-4-carboxylate] belongs 156 to 158 °C; to `O=C(Nc1ccc2c(c1)CCC(CN1CCCC1)=C2)N1CCC(c2ccc(Cl)cc2)CC1` [Example 165, 4-(4-Chlorophenyl)-N-[6-(1-pyrrolidinylmethyl)-7,8-dihydro-2-naphthalenyl]-1-piperidinecarboxamide], 194 to 195 °C.
Under `CN(C)CC1CCc2cc(NC(=O)c3ccc(-c4ccc5c(c4)OCO5)cc3)ccc2C1` (centres unmarked) [Example 14] stands 174 to 176 °C; under `CN(C)CC1CCc2cc(NC(=O)c3ccc(-c4ccc(C=O)cc4)cc3)ccc2C1` (centres unmarked) [Example 20, N-[6-[(N,N-Dimethylamino)methyl]-5,6,7,8-tetrahydro-2-naphthalenyl]-4′-formyl[1,1′-biphenyl]-4-carboxamide], 130 to 132 °C; under `CN(C)CC1CCc2cc(NC(=O)c3cccc(-c4ccccc4)c3)ccc2C1` (centres unmarked) [Example 120, N-[6-[(Dimethylamino)methyl]-5,6,7,8-tetrahydro-2-naphthalenyl][1,1′-biphenyl]-3-carboxamide], 145 to 148 °C.
To `O=C(Nc1ccc2c(c1)CCC(CN1CCCC1)=C2)N1CCN(c2ccc(F)cc2)CC1` [Example 100, 4-(4-Fluorophenyl)-N-[6-(1-pyrrolidinylmethyl)-7,8-dihydro-2-naphthalenyl]-1-piperazinecarboxamide] belongs 179 to 181 °C; to `CN(C)CCC1CCc2cc(NC(=O)c3ccc(-c4ccccc4)cc3)ccc2C1` (centres unmarked) [Example 209, N-[6-[2-(Dimethylamino)ethyl]-5,6,7,8-tetrahydro-2-naphthalenyl][1,1′-biphenyl]-4-carboxamide], 112 to 114 °C.
The compound `Cc1cc(-c2ccc(Cl)cc2)ccc1C(=O)Nc1ccc2c(c1)CCC(CN(C)C)C2` (centres unmarked) [Example 27, 4′-Chloro-N-[6-[(N,N-dimethylamino)methyl]-5,6,7,8-tetrahydro-2-naphthalenyl]-3-methyl[1,1′-biphenyl]-4-carboxamide] came in with a melting point of 163 to 165 °C.
To `O=C(Nc1ccc2c(c1)CCC(CN1CCCC1)=C2)N1CC=C(c2ccc(F)cc2)CC1` [Example 158] belongs 206 to 207 °C.
Take `Cc1ccc(C2CCN(C(=O)Nc3ccc4c(c3)CCC(CN3CCCC3)=C4)CC2)cc1` [Example 155, 4-(4-Methylphenyl)-N-[6-(1-pyrrolidinylmethyl)-7,8-dihydro-2-naphthalenyl]-1-piperidinecarboxamide]: the melting point fell in the range of 197 to 198 °C.
In turn, `O=C(Nc1ccc2c(c1)CCC(CN1CCCC1)C2)c1ccc(-c2ccccc2)cc1` (centres unmarked) [Example 96, N-[6-(1-Pyrrolidinylmethyl)-5,6,7,8-tetrahydro-2-naphthalenyl][1,1′-biphenyl]-4-carboxamide] returned a melting point of 144 to 146 °C.
To `O=C(Nc1ccc2c(c1)CCC(CN1CCCC1)C2)c1ccc(-c2ccc(F)cc2)cc1` (centres unmarked) [Example 97, 4′-Fluoro-N-[6-(1-pyrrolidinylmethyl)-5,6,7,8-tetrahydro-2-naphthalenyl][1,1′-biphenyl]-4-carboxamide] belongs 185 to 189 °C; to `CN(C(=O)c1ccc(-c2ccc(F)cc2)cc1)c1ccc2c(c1)CCC(CN1CCCC1)=C2` (as salt: hydrochloride) [Example 226, 4′-Fluoro-N-methyl-N-[6-(1-pyrrolidinylmethyl)-7,8-dihydro-2-naphthalenyl][1,1′-biphenyl]-4-carboxamide Hydrochloride], 201 to 203 °C; to `CN(C)CC1=Cc2ncc(NC(=O)c3ccc(-c4ccc(Cl)cc4)cc3)cc2CC1` [Example 134, 4′-Chloro-N-[7-[(dimethylamino)methyl]-5,6-dihydro-3-quinolinyl][1,1′-biphenyl]-4-carboxamide], 220 to 222 °C.
`Cc1ccc(-c2ccc(C(=O)Nc3ccc4c(c3)CCC(CN(C)C)=C4)cc2)cc1` [Example 85] gave a melting point of 195 to 196 °C.
To `CCC1=C(CN(C)C)CCc2cc(NC(=O)c3ccc(-c4ccc(Cl)cc4)cc3)ccc21` [Example 112, 4′-Chloro-N-[6-[(dimethylamino)methyl]-S-ethyl-7,8-dihydro-2-naphthalenyl][1,1′-biphenyl]-4-carboxamide] belongs 201 to 204 °C; to `CN(C)CCNC(=O)Cc1ccc(NC(=O)c2ccc(OCc3ccccc3)cc2)cc1` [Example 195], 190 to 192 °C (dec.).
For `CC1=C(CN(C)C)CCc2cc(NC(=O)c3ccc(-c4ccc(Cl)cc4)cc3)ccc21` [Example 111, 4′-Chloro-N-[6-[(dimethylamino)methyl]-5-methyl-7,8-dihydro-2-naphthalenyl][1,1′-biphenyl]-4-carboxamide], the melting point is 199 to 204 °C.
Under `CN(C)CC1CCc2cc(NC(=O)c3ccc(N4C(=O)c5ccccc5C4=O)cc3)ccc2C1` (centres unmarked) [Example 3, N-[2-(N,N-Dimethylamino)methyl-6-tetralinyl]-4-(1,3-dioxo-1,3-dihydro-2H-isoindol-2-yl) benzamide] stands 235 to 240 °C; under `CN(C)CC1COc2cc(NC(=O)c3ccc(-c4ccc(Cl)cc4)cc3)ccc2O1` (centres unmarked) [Example 106, 4′-Chloro-N-[2-[(dimethylamino)methyl]-2,3-dihydro-1,4-benzodioxin-6-yl][1,1′-biphenyl]-4-carboxamide], 215 to 217 °C.
